Results reported in ChEMBL document CHEMBL4732064, “Structure-activity relationship studies of phenothiazine derivatives as a new class of ferroptosis inhibitors together with the therapeutic effect in an ischemic stroke model” (Eur J Med Chem, 2021).
The source made the active and inactive calls. No cut-off for these calls is given here.

Key:
[1] = Antioxidant activity assessed as DPPH radical scavenging activity at 0.05 mM incubated for 10 mins; assay type: functional
HT-29 = assay: Protection against TNFalpha/Smac-mimetic/Z-VAD-FMK-induced necroptosis in human HT-29 cells assessed as cell viability at 10 uM; assay type: functional, cell-based
Calu-1 [2] = assay: Inhibition of erastin-induced ferroptosis in human Calu-1 cells assessed as cell viability incubated for 48 hrs by MTT assay; assay type: functional, cell-based; conditions: Calu-1, 48 h
MDA-MB-231 = assay: Inhibition of erastin-induced ferroptosis in human MDA-MB-231 cells assessed as cell viability incubated for 48 hrs by MTT assay; assay type: functional, cell-based; conditions: MDA-MB-231, 48 h
[3] = target: D(2) dopamine receptor (Homo sapiens) (UniProt P14416); assay: Antagonist activity at DRD2L (unknown origin) by FLIPR assay
[4] = target: T1, Alpha-1A adrenergic receptor (Homo sapiens) (UniProt P35348); assay: Antagonist activity at ADRA1A (unknown origin) by FLIPR assay
T1 sequence (whole entry): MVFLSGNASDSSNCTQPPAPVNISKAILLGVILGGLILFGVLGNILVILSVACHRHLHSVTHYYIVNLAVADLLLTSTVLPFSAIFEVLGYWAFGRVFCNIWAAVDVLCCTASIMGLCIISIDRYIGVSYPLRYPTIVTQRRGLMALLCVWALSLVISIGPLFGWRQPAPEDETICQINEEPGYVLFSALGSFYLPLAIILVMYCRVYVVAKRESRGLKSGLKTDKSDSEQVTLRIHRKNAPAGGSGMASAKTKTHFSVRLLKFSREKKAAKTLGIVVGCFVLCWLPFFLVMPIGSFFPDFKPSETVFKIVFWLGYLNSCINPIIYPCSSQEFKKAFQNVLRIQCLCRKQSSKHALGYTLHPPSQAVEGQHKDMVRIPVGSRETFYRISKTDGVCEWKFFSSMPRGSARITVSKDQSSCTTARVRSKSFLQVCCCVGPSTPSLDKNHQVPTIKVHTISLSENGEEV

[5] = target: 5-hydroxytryptamine receptor 2A (Homo sapiens) (UniProt P28223); assay: Antagonist activity at HTR2A (unknown origin) by FLIPR assay
[6] = target: T2, 5-hydroxytryptamine receptor 2C (Homo sapiens) (UniProt P28335); assay: Antagonist activity at HTR2C (unknown origin) by FLIPR assay
T2 sequence (whole entry): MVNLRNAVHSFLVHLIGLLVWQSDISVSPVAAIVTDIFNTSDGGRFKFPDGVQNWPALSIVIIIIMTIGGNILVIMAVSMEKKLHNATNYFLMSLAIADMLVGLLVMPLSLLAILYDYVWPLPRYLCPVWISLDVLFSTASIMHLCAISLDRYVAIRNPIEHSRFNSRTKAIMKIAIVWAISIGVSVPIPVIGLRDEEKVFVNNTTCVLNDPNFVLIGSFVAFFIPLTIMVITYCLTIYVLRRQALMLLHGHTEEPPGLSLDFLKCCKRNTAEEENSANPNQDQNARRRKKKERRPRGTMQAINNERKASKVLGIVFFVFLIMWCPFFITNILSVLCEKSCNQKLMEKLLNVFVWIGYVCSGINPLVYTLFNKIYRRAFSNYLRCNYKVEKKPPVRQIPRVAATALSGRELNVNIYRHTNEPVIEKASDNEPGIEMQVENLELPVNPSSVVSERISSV

HT-1080 [7] = assay: Downregulation of GPX4 expression in erastin-induced human HT-1080 cell ferroptosis model at 1 uM after 10 hrs by Western blot analysis; assay type: functional
HT-1080 [8] = assay: Inhibition of xCT expression in erastin-induced human HT-1080 cell ferroptosis model at 0.01 to 1 uM after 10 hrs by Western blot analysis; assay type: functional; conditions: dose 0.01-1 µM
HT-1080 [9] = assay: Inhibition of ERK expression in erastin-induced human HT-1080 cell ferroptosis model at 0.01 to 1 uM after 10 hrs by Western blot analysis; assay type: functional; conditions: dose 0.01-1 µM
HT-1080 [10] = assay: Reduction in lipid oxidation level in erastin-induced human HT-1080 cell ferroptosis model assessed as decrease in MDA accumulation at 0.01 to 1 uM; assay type: functional; conditions: dose 0.01-1 µM
HT-1080 [11] = assay: Antioxidant activity in erastin-induced human HT-1080 cell ferroptosis model assessed as decrease in cytosolic ROS accumulation at 0.01 to 1 uM incubated for 8 to 24 hrs by DCFH-DA staining based assay; assay type: functional; conditions: dose 0.01-1 µM, time 8-24 hrs
HT-1080 [12] = assay: Antioxidant activity in erastin-induced human HT-1080 cell ferroptosis model assessed as decrease in lipid ROS accumulation at 0.01 to 1 uM incubated for 8 to 24 hrs by BODIPY 581/591 C11 staining based flow cytometric analysis; assay type: functional; conditions: dose 0.01-1 µM, time 8-24 hrs
Calu-1 [13] = assay: Antioxidant activity in erastin-induced human Calu-1 cell ferroptosis model assessed as decrease in lipid ROS accumulation at 0.01 to 1 uM incubated for 8 to 24 hrs by BODIPY 581/591 C11 staining based flow cytometric analysis; assay type: functional; conditions: dose 0.01-1 µM, time 8-24 hrs
HT-1080 [14] = assay: Inhibition of H2O2-induced oxidative cell death in human HT-1080 cells at 10 uM incubated for 24 hrs; assay type: functional, cell-based
[15] = Metal chelating activity assessed as iron chelation
Rattus norvegicus [16] = assay: Protective activity in Sprague-Dawley rat model of middle cerebral artery occlusion-induced ischemia-reperfusion injury assessed as decrease in cerebral infarction volume at 5 mg/kg, iv measured after 24 hrs of post reperfusion by TTC staining based assay; assay type: functional, organism-based
Rattus norvegicus [17] = assay: Protective activity in Sprague-Dawley rat model of middle cerebral artery occlusion-induced ischemia-reperfusion injury assessed as reduction in neurological score at 5 mg/kg, iv measured after 24 hrs of post reperfusion […]; assay type: functional, organism-based
Rattus norvegicus [18] = assay: Protective activity in Sprague-Dawley rat model of middle cerebral artery occlusion-induced ischemia-reperfusion injury assessed as prevention of reperfusion injury at 5 mg/kg, iv measured after 24 hrs of post reperfusion by TTC staining based assay; assay type: functional, organism-based
Rattus norvegicus [19] = assay: Protective activity in Sprague-Dawley rat model of middle cerebral artery occlusion-induced ischemia-reperfusion injury assessed as restoration of walking ability at 5 mg/kg, iv measured after 24 hrs of post reperfusion […]; assay type: functional, organism-based
[20] = target: Indoleamine 2,3-dioxygenase 1 (Homo sapiens, UniProt P14902); assay: Inhibition of IDO1 (unknown origin)
[21] = target: T3, Histone acetyltransferase type B catalytic subunit (Homo sapiens, UniProt O14929); assay: Inhibition of HAT1 (unknown origin)
T3 sequence (O14929 whole entry): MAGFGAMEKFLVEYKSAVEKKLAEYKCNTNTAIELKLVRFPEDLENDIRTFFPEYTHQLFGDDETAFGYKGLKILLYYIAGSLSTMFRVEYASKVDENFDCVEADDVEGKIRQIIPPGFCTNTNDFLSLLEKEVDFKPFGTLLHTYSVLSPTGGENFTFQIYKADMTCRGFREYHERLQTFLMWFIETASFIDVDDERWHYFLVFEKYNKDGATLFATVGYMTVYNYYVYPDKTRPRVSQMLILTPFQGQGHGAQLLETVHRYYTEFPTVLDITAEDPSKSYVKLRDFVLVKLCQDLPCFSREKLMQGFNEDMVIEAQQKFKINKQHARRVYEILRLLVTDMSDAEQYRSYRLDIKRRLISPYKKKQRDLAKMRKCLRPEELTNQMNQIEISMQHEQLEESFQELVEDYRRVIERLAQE

D(2) dopamine receptor (Homo sapiens), sequence (P14416 whole entry): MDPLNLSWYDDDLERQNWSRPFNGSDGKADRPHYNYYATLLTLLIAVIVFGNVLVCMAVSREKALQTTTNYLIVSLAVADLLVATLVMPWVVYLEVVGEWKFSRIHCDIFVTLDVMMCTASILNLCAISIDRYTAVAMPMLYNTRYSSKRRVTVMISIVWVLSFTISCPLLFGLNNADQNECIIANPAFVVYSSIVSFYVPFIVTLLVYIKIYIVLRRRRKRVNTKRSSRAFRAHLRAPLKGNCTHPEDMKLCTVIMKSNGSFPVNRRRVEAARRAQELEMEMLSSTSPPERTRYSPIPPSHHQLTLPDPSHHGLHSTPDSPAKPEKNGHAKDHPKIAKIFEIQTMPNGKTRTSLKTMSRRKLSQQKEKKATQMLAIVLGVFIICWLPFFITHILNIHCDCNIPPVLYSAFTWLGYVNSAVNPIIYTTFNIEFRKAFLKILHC
Indoleamine 2,3-dioxygenase 1, sequence (P14902 whole entry): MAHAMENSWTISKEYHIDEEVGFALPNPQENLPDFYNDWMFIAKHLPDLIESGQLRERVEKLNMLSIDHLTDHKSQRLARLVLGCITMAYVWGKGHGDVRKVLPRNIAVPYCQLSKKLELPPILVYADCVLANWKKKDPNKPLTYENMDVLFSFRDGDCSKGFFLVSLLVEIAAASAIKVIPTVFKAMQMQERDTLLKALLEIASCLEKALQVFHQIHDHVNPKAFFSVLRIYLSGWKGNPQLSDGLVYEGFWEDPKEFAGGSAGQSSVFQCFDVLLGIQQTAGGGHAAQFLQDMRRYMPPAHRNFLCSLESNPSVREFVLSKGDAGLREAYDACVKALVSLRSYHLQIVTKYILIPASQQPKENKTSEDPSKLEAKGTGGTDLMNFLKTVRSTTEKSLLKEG
5-hydroxytryptamine receptor 2A (Homo sapiens), sequence (P28223 whole entry): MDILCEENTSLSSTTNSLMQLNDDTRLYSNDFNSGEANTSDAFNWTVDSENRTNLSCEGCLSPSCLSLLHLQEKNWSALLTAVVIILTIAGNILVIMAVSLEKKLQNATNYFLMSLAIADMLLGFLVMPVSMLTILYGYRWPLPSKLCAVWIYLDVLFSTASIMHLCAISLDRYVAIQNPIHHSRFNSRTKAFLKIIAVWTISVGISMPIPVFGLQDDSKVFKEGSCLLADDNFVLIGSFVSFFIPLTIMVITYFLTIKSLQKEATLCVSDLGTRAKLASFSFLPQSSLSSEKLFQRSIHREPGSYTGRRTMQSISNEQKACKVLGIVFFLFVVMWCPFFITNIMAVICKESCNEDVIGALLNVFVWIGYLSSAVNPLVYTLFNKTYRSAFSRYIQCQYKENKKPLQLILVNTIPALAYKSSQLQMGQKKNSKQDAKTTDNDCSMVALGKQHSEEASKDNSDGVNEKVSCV

CC(c1ccc(N2CCN(C)CC2)cc1)c1ccc2c(c1)Nc1ccccc1S2 (stereo not drawn)
Activity [1]: Active | Activity (HT-29): inactive | EC50 (Calu-1 [2]): 1.88 nM | EC50 (MDA-MB-231): 0.424 nM | Activity [3]: inactive | Activity [4]: inactive | Activity [5]: inactive | Activity [6]: inactive | Activity (HT-1080 [7]): inactive | inhibition (HT-1080 [8]): inactive | inhibition (HT-1080 [9]): inactive | Activity (HT-1080 [10]): Active | Activity (HT-1080 [11]): Active | Activity (HT-1080 [12]): Active | Activity (Calu-1 [13]): Active | Activity (HT-1080 [14]): inactive | Activity [15]: inactive | Activity (Rattus norvegicus [16]): Active | Activity (Rattus norvegicus [17]): Active | Activity (Rattus norvegicus [18]): Active | Activity (Rattus norvegicus [19]): Active | IC50 [20]: > 10000 nM | IC50 [21]: > 10000 nM
